According to patent US20040147561A1, “Pyrid-2-one derivatives and methods of use” (priority 2002, published 2004):
Counter-ions that a name gives are not always drawn.

With CCOC(=O)c1cc(-c2csc(-c3ccnc(NCc4ccco4)c3)n2)c(=O)[nH]c1C (as salt: HCl) [Example 53, Ethyl 5-(2-(2-[(fur-2-ylmethyl)-amino]-pyridin-4-yl}-thiazol-4-yl)-2-methyl-6-oxo-1,6-dihydro-3-pyridinecarboxylate] the melting point was 260 °C (dec.).
With CCOC(=O)c1cc(-c2csc(-c3ccnc(NCc4ccc(F)cc4)c3)n2)c(=O)[nH]c1C (as salt: HCl) [Example 55, Ethyl 5-{2-[2-(4-fluoro-benzylamino)-pyridin-4-yl]-thiazol-4-yl}-2-methyl-6-oxo-1,6-dihydro-3-pyridinecarboxylate] the melting point was 280 °C (dec.).
For CCCCNc1cc(-c2nc(-c3cc(C(=O)OCC)c(C)[nH]c3=O)cs2)ccn1 (as salt: HCl) [Example 56, Ethyl 5-[2-(2-butylamino-pyridin-4-yl)-thiazol-4-yl]-2-methyl-6-oxo-1,6-dihydro-3-pyridinecarboxylate], the melting point was 230 °C (dec.).
With CCOC(=O)c1cc(-c2csc(-c3ccnc(NCC(N)=O)c3)n2)c(=O)[nH]c1C (as salt: HCl) [Example 57, Ethyl 5-{2-[2-(carbamoylmethyl-amino)-pyridin-4-yl]-thiazol-4-yl}-2-methyl-6-oxo-1,6-dihydro-3-pyridinecarboxylate] the melting point was 270 °C (dec.).
With CCOC(=O)c1cc(-c2csc(-c3ccnc(NCCNC(C)=O)c3)n2)c(=O)[nH]c1C (as salt: HCl) [Example 58] the melting point was 270 °C (dec.).
For Cc1[nH]c(=O)c(-c2csc(-c3ccnc(NCC4CC4)c3)n2)cc1C(=O)NCC1CC1 (as salt: HCl) [Example 60, N-(Cyclopropylmethyl)-5-(2-(2-((cyclopropylmethyl)amino)-4-pyridinyl)-1,3-thiazol-4-yl)-2-methyl-6-oxo-1,6-dihydro-3-pyridinecarboxamide], the melting point was over 260 °C.
CCOC(=O)c1cc(-c2csc(-c3ccnc(NCC4CC4)c3)n2)c(=O)[nH]c1C (as salt: HCl) [Example 61, Ethyl 5-{2-[2-(cyclopropylmethyl-amino)-pyridin-4-yl]-thiazol-4-yl}-2-methyl-6-oxo-1,6-dihydro-3-pyridinecarboxylate] showed a melting point of over 260 °C.
For CCOC(=O)c1cc(-c2csc(-c3ccnc(NCC4CCCC4)c3)n2)c(=O)[nH]c1C (as salt: HCl) [Example 62, Ethyl 5-{2-[2-(Cyclopentyl)methylamino-pyridin-4-yl]-thiazol-4-yl}-2-methyl-6-oxo-1,6-dihydro-3-pyridinecarboxylate], the melting point was 260 °C (dec.).
For COc1ccc(CNC(=O)c2cc(-c3csc(-c4ccnc(NCc5ccc(OC)cc5)c4)n3)c(=O)[nH]c2C)cc1 (as salt: HCl) [Example 63, 5-{2-[2-(4-Methoxy-benzyamino)-pyridin-4-yl]-thiazol-4-yl}-2-methyl-6-oxo-1,6-dihydropyridine-3-carboxylic acid 4-methoxy-benzylamide], the melting point was 280 °C (dec.).
For CCOC(=O)c1cc(-c2csc(-c3ccnc(NC)c3)n2)c(=O)[nH]c1C(C)C (as salt: HCl) [Example 94, Ethyl 5-[2-(methylamino-pyridin-4-yl)-thiazol-4-yl]-2-isopropyl-6-oxo-1,6-dihydro-3-pyridinecarboxylate], the melting point was over 230 °C.
Compound CCOC(=O)c1cc(-c2csc(-c3ccnc(N(C)C)c3)n2)c(=O)[nH]c1C(C)C (as salt: hydrochloride) [Example 93, Ethyl 5-[2-(dimethylamino-pyridin-4-yl)-thiazol-4-yl]-2-isopropyl-6-oxo-1,6-dihydro-3-pyridinecarboxylate] has a melting point of over 230 °C.
For CCOC(=O)c1cc(-c2csc(N(C)S(=O)(=O)c3ccccc3)n2)c(=O)[nH]c1C (as salt: salt) [Example 68, Ethyl 2-methyl-5-{2-[methyl(phenylsulfonyl)amino](1,3-thiazol-4-yl)}-6-oxo-1,6-dihydro-3-pyridinecarboxylate], the melting point was 231 to 234 °C.
Work on O=c1[nH]cc(Oc2ccccc2)cc1-c1csc(-c2ccncc2)n1 (as salt: salt) [Example 71, 5-Phenoxy-3-(2-(4-pyridinyl)-1,3-thiazol-4-yl)-2(1H)-pyridinone] yielded a melting point of 243 to 245 °C.
In the case of CCOC(=O)c1cc(-c2csc(CS(=O)(=O)c3ccc(Cl)cc3)n2)c(=O)[nH]c1C [Example 25], the melting point is reported as 300 °C (dec.).
In the case of CCOC(=O)c1cc(-c2csc(CS(=O)(=O)Cc3ccc(F)cc3)n2)c(=O)[nH]c1C [Example 26, Ethyl 5-[2-({[(4-fluorophenyl)methyl]sulfonyl}mthyl)(1,3-thiazol-4-yl)]-2-methyl-6-oxo-1,6-dihydro-3-pyridinecarboxylate], the melting point is reported as 300 °C (dec.).
In the case of CCOC(=O)c1cc(-c2csc(-c3cccs3)n2)c(=O)[nH]c1C [Example 27], the melting point is reported as 230 °C (dec.).
For CCOC(=O)c1cc(-c2csc(CSc3ccccc3)n2)c(=O)[nH]c1C [Example 28, Ethyl 2-methyl-6-oxo-5-{2-(phenylthiomethyl)(1,3-thiazol-4-yl)}-1,6-dihydro-3-pyridinecarboxylate], the melting point was 260 °C (dec.).
In the case of CCOC(=O)c1cc(-c2csc(-c3ccnc(CC)c3)n2)c(=O)[nH]c1C [Example 29], the melting point is reported as 270 °C (dec.).
In the case of CCOC(=O)c1cc(-c2csc(CS(=O)(=O)Cc3cccc(C(F)(F)F)c3)n2)c(=O)[nH]c1C [Example 30], the melting point is reported as 300 °C (dec.).
For CCOC(=O)c1cc(-c2csc(-c3ccsc3)n2)c(=O)[nH]c1C [Example 31, Ethyl 2-methyl-6-oxo-5-{2-[3-thienyl](1,3-thiazol-4-yl)}-1,6-dihydro-3-pyridinecarboxylate], the melting point was 230 °C (dec.).
For CCOC(=O)c1cc(-c2csc(-c3ccc4c(c3)OCO4)n2)c(=O)[nH]c1C [Example 32, Ethyl 5-(2-(2H-benzo[d]1,3-dioxolan-5-yl)(1,3-thiazol-4-yl))-2-m thyl-6-oxo-1,6-dihydro-3-pyridinecarboxylate], the melting point was 230 °C (dec.).
For CCOC(=O)c1cc(-c2csc(-c3ccccc3)n2)c(=O)[nH]c1C [Example 33, Ethyl 2-methyl-6-oxo-5-{2-phenyl(1,3-thiazol-4-yl)}-1,6-dihydro-3-pyridinecarboxylate], the melting point was 260 °C (dec.).
In the case of CCOC(=O)c1cc(-c2csc(-c3ccc(F)cc3)n2)c(=O)[nH]c1C [Example 34, Ethyl 2-methyl-6-oxo-5-{2-[4-fluorophenyl](1,3-thiazol-4-yl)}-1,6-dihydro-3-pyridinecarboxylate], the melting point is reported as 260 °C (dec.).
With CCOC(=O)c1cc(-c2csc(-c3c(Cl)cccc3Cl)n2)c(=O)[nH]c1C [Example 35, Ethyl 5-[2-(2,6-dichlorophenyl)(1,3-thiazol-4-yl)]2-methyl-6-oxo-1,6-dihydro-3-pyridinecarboxylate] the melting point was 260 °C (dec.).
In the case of CCOC(=O)c1cc(-c2csc(-c3csc(C)n3)n2)c(=O)[nH]c1C [Example 36], the melting point is reported as 195 °C (dec.).
For CCOC(=O)c1cc(-c2csc(CS(=O)(=O)Cc3ccco3)n2)c(=O)[nH]c1C [Example 37, Ethyl 5-(2-{[(2-furylmethyl)sulfonyl]methyl}(1,3-thiazol-4-yl))-2-methyl-6-oxo-1,6-dihydro-3-pyridinecarboxylate], the melting point was 290 °C (dec.).
With CCOC(=O)c1cc(-c2csc(CS(=O)(=O)C(C)(C)C)n2)c(=O)[nH]c1C [Example 38, Ethyl 5-(2-{[(tert-butyl)sulfonyl]methyl}(1,3-thiazol-4-yl))-2-methyl-6-oxo-1,6-dihydro-3-pyridinecarboxylate] the melting point was 250 °C (dec.).
In the case of CCOC(=O)c1cc(-c2csc(-c3cccnc3)n2)c(=O)[nH]c1C [Example 39], the melting point is reported as 230 °C (dec.).
In the case of CCOC(=O)c1cc(-c2csc(-c3ccnc(Cl)c3)n2)c(=O)[nH]c1C [Example 40], the melting point is reported as 250 °C (dec.).
With CCOC(=O)c1cc(-c2csc(-c3ccc(OC)cc3)n2)c(=O)[nH]c1C [Example 41, Ethyl 2-methyl-6-oxo-5-{2-[4-methoxyphenyl](1,3-thiazol-4-yl)}-1,6-dihydro-3-pyridinecarboxylate] the melting point was 240 °C (dec.).
With CCOC(=O)c1cc(-c2csc(-c3c(Cl)cncc3Cl)n2)c(=O)[nH]c1C [Example 42, Ethyl 5-[2-(3,5-dichloro-pyridyl-4-yl)-thiazol-4-yl]-2-methyl-6-oxo-1,6-dihydro-3-pyridinecarboxylate] the melting point was 290 °C (dec.).
With CCOC(=O)c1cc(-c2csc(CS(C)(=O)=O)n2)c(=O)[nH]c1C [Example 43, Ethyl 5-(2-{[(methyl)sulfonyl]methyl}(1,3-thiazol-4-yl))-2-methyl-6-oxo-1,6-dihydro-3-pyridinecarboxylate] the melting point was 230 °C (dec.).
In the case of CCOC(=O)c1cc(-c2csc(-c3sccc3CS(=O)(=O)c3ccc(Cl)cc3)n2)c(=O)[nH]c1C [Example 44], the melting point is reported as 300 °C (dec.).
For CCOC(=O)c1cc(-c2csc(-c3ccnc(N4CCCCC4)c3)n2)c(=O)[nH]c1C [Example 45, Ethyl 2-methyl-6-oxo-5-(2-(2-(1-piperidinyl)-4-pyridinyl)-1,3-thiazol-4-yl)-1,6-dihydro-3-pyridinecarboxylate], the melting point was 260 °C (dec.).
For CCOC(=O)c1cc(-c2csc(-c3ccnc(NCC(C)C)c3)n2)c(=O)[nH]c1C [Example 46, Ethyl 2-methyl-5-(2-(2-((2-methylpropyl)amino)-4-pyridinyl)-1,3-thiazol-4-yl)-6-oxo-1,6-dihydro-3-pyridinecarboxylate], the melting point was 260 °C (dec.).
With CCOC(=O)c1cc(-c2csc(-c3ccnc(NCc4ccccc4)c3)n2)c(=O)[nH]c1C [Example 48, Ethyl 2-methyl-6-oxo-5-(2-(2-((phenylmethyl)amino)-4-pyridinyl)-1,3-thiazol-4-yl)-1,6-dihydro-3-pyridinecarboxylate] the melting point was 290 °C (dec.).
For CCOC(=O)c1cc(-c2csc(CCn3cccc(C(F)(F)F)c3=O)n2)c(=O)[nH]c1C [Example 51, Ethyl 2-methyl-6-oxo-5-(2-(2-(2-oxo-3-(trifluoromethyl)-1(2H)-pyridinyl)ethyl)-1,3-thiazol-4-yl)-1,6-dihydro-3-pyridinecarboxylate], the melting point was 250 °C (dec.).
